A short description of data set [1]: stability of a solution of molecular iodine in mineral oil at 40° C. Format: physicochemical. As to the method: The stability of a solution of molecular iodine in oil was measured. Crystals of elemental iodine were dissolved at room temperature in mineral oil. The concentrations of molecular iodine were approximately 0.6, 3.0 and 6.0 mg/mL. The absorbance was determined at 522 nm as a measure of the concentration of molecular iodine. Samples were stored in 500 mL amber glass bottles (Fisher Cat. No. 05-719-466) with Teflon lined screw-tops. The screw tops contained a septum to sample the fluids using a syringe without opening the bottle. The bottles were stored in an incubator at 40° C.
Samples were analyzed monthly to determine if there was a loss of molecular iodine. On the day of an analysis, a bottle was removed from the incubator, placed into room-temperature water covering approximately ¾ of the bottle, and allowed to cool for at least 6 hours. A sample was removed with a glass syringe and its absorbance was determined at 522 nm.

A short description of data set [2]: interaction of molecular iodine with mineral oil, UV-visible absorbance. Format: physicochemical. To be noted: elemental iodine dissolved in mineral oil, 300-600 nm. As to the method: The interaction of molecular iodine with mineral oil was evaluated. The following stock solutions were prepared for this experiment: 0.050 grams and 1.001 grams of elemental iodine crystals dissolved into about 80 ml of mineral oil in two different 100-ml flasks, and then filled to 100 ml with mineral oil. The absorbance spectrum between 300 and 600 nm for various mixtures of these two stock solutions were made in a UV/V is scanning spectrophotometer (Schimadzu 1125). The absorbance spectrums were analyzed and the extinction coefficient was calculated at appropriate wavelengths.
The UV-visible spectra of iodine-in-mineral oil presents two peaks in the range of 300-600 nm; one peak is at 302 nm and the other is at 522 nm (the maximum absorbance is at 522 nm). The absorbance is proportional to concentration as predicted by Beer's Law. […] The two peaks are at 302 nm and 522 nm and are slightly variable in the test concentration range. The extinction coefficients (moles per 1000 grams)^−1 (per cm)^−1) at 302 and 522 nm were calculated to be 219 and 905 respectively.

In data set [3] the test system is women. In words: six month study of molecular iodine in 111 women (IND #56,523). The following applies: 111 women, 0, 1.5, 3.0 or 6.0 mg per day for six months, in situ generation of molecular iodine. Format: in vivo. How it is done:
To determine the potential for molecular iodine to cause hyperthyroidism or hypothyroidism 111 women daily were dosed with either 0, 1.5, 3.0 or 6.0 mg of molecular iodine per day for six months. This study was performed under the guidance of the FDA (IND #56,523). The dosage form used relied upon in situ generation of molecular iodine as described in U.S. Pat. No. 5,885,592 as opposed to the aqueous iodine therapy of Table 5. The total exposure to molecular iodine in this study was 3.619 subject years.

For data set [4] the following is noted: administered orally; cited from earlier work.
Data set [5] concerns mammalian thyroid parameters. The following applies: orally administered; cited from earlier work.

Each structure is given as a SMILES string.

For `II` [I2, molecular iodine], the “Percentage of Initial Absorbance (OD522nm)” value (“Percentage” for short) in data set [1] (0.6 mg/mL I2 in mineral oil, Day 14) turned out to be 99.5%; in data set [1] (0.6 mg/mL I2 in mineral oil, Day 32), 99.1%; in data set [1] (0.6 mg/mL I2 in mineral oil, Day 56), 98.2%; in data set [1] (0.6 mg/mL I2 in mineral oil, Day 97), 97.8%; in data set [1] (0.6 mg/mL I2 in mineral oil, Day 143), 96.4%; in data set [1] (3.0 mg/mL I2 in mineral oil, Day 14), 100.6%. The “Percentage” value in data set [1] (3.0 mg/mL I2 in mineral oil, Day 32) is 100.5%; in data set [1] (3.0 mg/mL I2 in mineral oil, Day 56) it was 100.4%; in data set [1] (3.0 mg/mL I2 in mineral oil, Day 97) it was 100.1%; in data set [1] (3.0 mg/mL I2 in mineral oil, Day 143), 100.8%; in data set [1] (6.0 mg/mL I2 in mineral oil, Day 14) it was 100.3%; in data set [1] (6.0 mg/mL I2 in mineral oil, Day 32), 100.2%. Moreover, the “Percentage” value was 99.2% in data set [1] (6.0 mg/mL I2 in mineral oil, Day 56); 101.4% in data set [1] (6.0 mg/mL I2 in mineral oil, Day 97); 100.7% in data set [1] (6.0 mg/mL I2 in mineral oil, Day 143). In data set [2], the “change of absorbance with time (stability in mineral oil)” value was “did not change with time”. Besides, the hyperthyroidism or hypothyroidism result in data set [3] is “No hyperthyroidism or hypothyroidism was observed”. The “treatment-emergent adverse events, laboratory parameters, vital signs versus dose” value in data set [3] is “not associated with increases in incidence, severity and causality of treatment-emergent adverse events or clinically significant changes in laboratory parameters or vital signs”. The “oral toxicity compared with iodide” value in data set [4] is “less toxic than iodide”.

With `I` [iodide], in data set [5], the “concentration negatively affecting mammalian thyroid parameters, fold less than for a comparable effect from molecular iodine” value is 10 fold.
